Source: patent US20210009959A1, “METHODS FOR ENHANCING OSTEOGENIC DIFFERENTIATION USING VITAMIN D” (priority 2019, published 2021)

What was measured:
Format in all cases: cell-based
[1] = system: human adipose stem cells (hASCs); experiment: ALP activity of hASCs seeded in BCP scaffold
Experimental: In one embodiment, a method of static culture of hASCs by pre-treatment with vitamin D3 (calcitriol) and attachment of hASCs to the scaffold used in one-step surgical procedure comprises the following steps. At one step, isolating hASCs as explained in FIG. 1. In an embodiment, the hASCs from three donors at passage 3 are used for further processing. As an optional step, the obtained hASCs are either or not incubated for a period of about 30 mins with low concentrated calcitriol of about 10 nM at room temperature.
At next step, the calcitriol treated hASCs are washed twice with Phosphate Buffered Saline (PBS) to remove calcitriol. Further, the washed hASCs are centrifuged and resuspended in Dulbecco's Minimum Essential Medium (DMEM) without any supplements. At another step, the resuspended cells are seeded on the scaffold and allowed to attach to the scaffolds for a period of about 30 minutes. At next step, the scaffolds with attached cells are transferred to 12-well plates with Costar® Transwell® containers (Corning Life Sciences, Lowell, Mass., USA) containing expansion medium (DMEM) supplemented with 10% Fetal Clone I (FCI), antibiotics (1% penicillin/streptomycin/fungizone (PSF)), 50 μM ascorbic acid (Merck, Darmstadt, Germany), and 10 mM β-glycerol phosphate (Merck, Darmstadt, Germany) (PLGA/β-TCP). At next step, the hASCs seeded scaffolds are incubated at 5% CO2 in a humidified incubator at predefined temperature of about 37° C. for a period of about 3 weeks.
Referring to FIGS. 5A and 5B, the effects of calcitriol treatment on ALP activity of hASCs, where the calcitriol pre-treatment is conducted for a short period of 30 minutes and a long period of about 3 weeks. […] The ALP activity of continuous treated cells with calcitriol is increased by 2.6-fold relative to non-treated cells after 2 weeks of culture.

[2] = system: human adipose stem cells (hASCs); experiment: Osteogenic and angiogenic gene expression of hASCs in 3D PLGA/β-TCP scaffold, dynamic and static culture
Experimental: In one embodiment, dynamic culture of pre-treated hASCs with calcitriol, using the modified perfusion bioreactor comprises the following steps. In one embodiment, the scaffolds are 3D PLGA/β-TCP. The modified perfusion bioreactor […] comprises five scaffolds, loaded with a total of 70 ml of culture medium as shown in FIG. 2. At another step, 30 ml of the culture medium is replaced twice a week for a total period of two weeks. At another step, the culture medium in the modified perfusion bioreactor 200 is distributed to the five scaffolds with the flow rate of about 5 ml/min using the peristaltic pump 202.
In one embodiment, the method of static culture of pre-treated hASCs is continued in a flask bioreactor with the same volume of culture medium utilized in the dynamic culture. Further, the methods of culturing the hASCs are divided into different groups. In one embodiment, the methods of culturing of hASCs are divided into four groups such as, static culture of non-treated hASCs, static culture of pre-treated hASCs with calcitriol, dynamic culture of non-treated hASCs and dynamic culture of pre-treated hASCs with calcitriol.
Referring to FIGS. 11A to 11I, the effects of perfusion culture of hASCs on osteogenic and angiogenic differentiation of hASCs are disclosed, where the hASCs are seeded in 3D PLGA/β-TCP scaffold. In one embodiment, the hASCs are pre-treated with or without 10 nM of calcitriol for 30 minutes and cultured in the modified perfusion bioreactor (dynamic culture) and flask bioreactor (static culture).

[3] = system: human adipose stem cells (hASCs); experiment: ALP staining using NBT/BCIP in hASCs; conditions: 30 min treatment; 2 and 3 weeks of culture; compared to continuous treatment
From the text: Referring to FIG. 6, the effect of calcitriol treatment on ALP activity in hASCs by ALP staining using nitro blue tetrazolium chloride/5-bromo-4-chloro-3-indolyl phosphate (NBT/BCIP) is disclosed. […] The increase in ALP activity is confirmed by ALP staining after 14 days of culture. […] The cell distribution is confirmed by 4′,6-diamidino-2-phenylindole (DAPI) staining.

[4] = system: human adipose stem cells (hASCs); experiment: hASC attachment to BCP20/80 scaffolds after calcitriol pre-treatment
Experimental: In one embodiment, a method of static culture of hASCs by pre-treatment with vitamin D3 (calcitriol) and attachment of hASCs to the scaffold used in one-step surgical procedure comprises the following steps. At one step, isolating hASCs as explained in FIG. 1. In an embodiment, the hASCs from three donors at passage 3 are used for further processing. As an optional step, the obtained hASCs are either or not incubated for a period of about 30 mins with low concentrated calcitriol of about 10 nM at room temperature. At next step, the calcitriol treated hASCs are washed twice with Phosphate Buffered Saline (PBS) to remove calcitriol. Further, the washed hASCs are centrifuged and resuspended in Dulbecco's Minimum Essential Medium (DMEM) without any supplements. At another step, the resuspended cells are seeded on the scaffold and allowed to attach to the scaffolds for a period of about 30 minutes. At next step, the scaffolds with attached cells are transferred to 12-well plates with Costar® Transwell® containers (Corning Life Sciences, Lowell, Mass., USA) containing expansion medium (DMEM) supplemented with 10% Fetal Clone I (FCI), antibiotics (1% penicillin/streptomycin/fungizone (PSF)), 50 μM ascorbic acid (Merck, Darmstadt, Germany), and 10 mM β-glycerol phosphate (Merck, Darmstadt, Germany) (PLGA/β-TCP). […]

[5] = 14 days, perfusion culture of pre-treated vs perfusion culture of non-treated hASCs
[6] = 14 days, perfusion culture of pre-treated vs static culture of pre-treated hASCs
[7] = day 7, dynamic culture of pre-treated vs perfusion culture of non-treated hASCs
[8] = day 7, dynamic culture of pre-treated vs static culture of treated hASC

C=C1/C(=C\C=C2/CCC[C@]3(C)[C@@H]([C@H](C)CCCC(C)(C)O)CC[C@@H]23)C[C@@H](O)C[C@@H]1O [calcitriol, 1,25-dihydroxyvitamin D3]
ALP activity, increase ([1]; 30 min pre-treatment, after 2 weeks of culture, vs non-treated cells): 18.5 fold
ALP activity, increase ([1]; 30 min pre-treatment, after 3 weeks of culture): 2.4 fold
ALP activity, increase ([1]; continuous treatment with 10 nM, after 2 weeks, vs non-treated cells): 2.6 fold
ALP activity, change ([1]; continuous treatment with 10 nM, at 3 weeks): 0.4 fold
CYP27B1 gene expression, increase [2, 5]: 5.3 fold
Endotelin-1 gene expression, increase [2, 5]: 4 fold
Ki-67 gene expression, increase [2, 5]: 1.8 fold
OCN gene expression, increase [2, 5]: 2.1 fold
RUNX2 gene expression, increase [2, 5]: 6.4 fold
SPARC gene expression, increase [2, 5]: 2.8 fold
VEGF165 gene expression, increase [2, 5]: 3.1 fold
VEGF189 gene expression, increase [2, 5]: 2.5 fold
CYP27B1 gene expression, increase [2, 6]: 15.4 fold
Endotelin-1 gene expression, increase [2, 6]: 35 fold
Ki-67 gene expression, increase [2, 6]: 5.1 fold
OCN gene expression, increase [2, 6]: 4.1 fold
OPN gene expression, increase [2, 6]: 60 fold
RUNX2 gene expression, increase [2, 6]: 82.8 fold
SPARC gene expression, increase [2, 6]: 33.2 fold
VEGF165 gene expression, increase [2, 6]: 1.4 fold
VEGF189 gene expression, increase [2, 6]: 5.7 fold
OPN gene expression (level) ([2]; day 7, dynamic culture of pre-treated hASC): 0.1084
Endotelin-1 gene expression, increase [2, 7]: 120.9 fold
Ki-67 gene expression, increase [2, 7]: 45.9 fold
OCN gene expression, increase [2, 7]: 1.8 fold
RUNX2 gene expression, increase [2, 7]: 186.5 fold
SPARC gene expression, increase [2, 7]: 3 fold
VEGF165 gene expression, increase [2, 7]: 3 fold
VEGF189 gene expression, increase [2, 7]: 3.4 fold
Endotelin-1 gene expression, increase [2, 8]: 5.4 fold
OCN gene expression, increase [2, 8]: 7.1 fold
OPN gene expression, increase [2, 8]: 47.3 fold
SPARC gene expression, increase [2, 8]: 7.5 fold
VEGF165 gene expression, increase [2, 8]: 9.8 fold
VEGF189 gene expression, increase [2, 8]: 8.8 fold
OPN gene expression (level) ([2]; day 7, static culture of treated hASC): 0.002291
ALP activity by ALP staining (NBT/BCIP) [3]: notably increases
cell attachment to BCP scaffolds ([4]; 30 min pre-treatment with 10 nM calcitriol (non-treated 54%)): 83%
cell attachment to BCP scaffolds, increase ([4]; 30 min pre-treatment with 10 nM calcitriol, vs non-treated cells): 1.5 fold
